This is an account of results in patent US10577638B2, “Systems, devices, and methods for microbial detection and identification, and antimicrobial susceptibility testing” (Board of Regents, The University of Texas System, priority 2013, dated 2020).

The subject of this assay is CA-MRSA clinical isolates and a wild type CA-MRSA strain. Nature of the assay: AST-Chip antibiotic susceptibility test of CA-MRSA clinical isolates (FUN-1 fluorescence). The settings on record: isolates A32, K2 and B2 compared with isolates I27, D1, M2 and WT, 8 μg/ml, incubated 16 h. The class given is cell-based, Staphylococcus aureus. The procedure:
The key steps in chip fabrication are described in below (these methods are also described in Srinivasan et al., which is incorporated by reference herein). The fabrication included three steps: (i) modification of the surface of glass slides with poly(styrene-co-maleic anhydride) (PSMA); (ii) printing spots of a 30 nl mixture of poly-l-lysine and barium chloride to create a “tie-layer” using a robotic microarrayer (Microsys, Digilab); and (iii) printing a 30 nl mixture of 0.5% alginate solution, optimized-growth medium and antimicrobial agents at various concentrations on top of the tie-layer. […]
The AST-Chip was benchmarked by evaluating the antimicrobial-susceptibility of a wild type strain of Staphylococcus aureus (UAMS-1) and CA-MRSA (USA 300) against methicillin. […] After incubation, the cell density at different spots was quantified using FUN-1, a vital fluorescent dye with excitation and emission wavelength that is compatible with a standard microarray scanner and facilitating faster read out (FIG. 6A). The fluorescence intensity of control (no drug) and sodium hypochlorite-treated dead biofilms were set at 100% and 0%, respectively. The inhibitory effects of the antimicrobial agents were determined by the reduction in fluorescence intensity in comparison to the controls (FIG. 6B). […]

Regarding `CN[C@H](CC(C)C)C(=O)N[C@H]1C(=O)N[C@@H](CC(N)=O)C(=O)N[C@H]2C(=O)N[C@H]3C(=O)N[C@H](C(=O)N[C@H](C(=O)O)c4cc(O)cc(O)c4-c4cc3ccc4O)[C@H](O)c3ccc(c(Cl)c3)Oc3cc2cc(c3O[C@@H]2O[C@H](CO)[C@@H](O)[C@H](O)[C@H]2O[C@H]2C[C@](C)(N)[C@H](O)[C@H](C)O2)Oc2ccc(cc2Cl)[C@H]1O` [vancomycin], the “relative susceptibility of isolates to the drug” value was “less susceptible”.
